The subject of this test is patients with T2DM with HbA1c between ≥7.0% and ≤10.5% on metformin or metformin plus an SGLT-2 inhibitor. Kind of test: Example 1 clinical trial using tirzepatide, 52 weeks, versus insulin degludec. The format is in vivo, human. The conditions noted are these: standard titration protocol. The source says:
The enrollment criteria, set forth in Table 1 below, are designed to include participants who are similar to patients seen within a typical diabetes practice, and include some patient with type 2 diabetes that is refractory to oral treatment. Geriatric patients are included. Mean duration with type 2 diabetes about 8 years. Study continues for 52 weeks.
The study is designed to consist of a screening visit followed by a single-blind 3-week placebo run-in period. Afterwards, patients are randomized to tirzepatide 5, 10, or 15 mg (dosed using an escalation dose protocol) or insulin degludec (standard titration protocol) and followed at approximately monthly intervals. Patients receiving insulin degludec follow standard insulin degludec titration protocol during the study. Study protocol includes blood pressure measurement at each visit and serum lipid profile at study initiation and at 52 weeks using standard clinical methods. Blood Pressure measures using the methods of Example 1 are represented in FIGS. 3 and 4. HDL-C levels using the methods of Example 1 are represented in FIG. 1.

As for insulin degludec, the “Percent patients achieving ≤5.7% HbA1c by 52 weeks” value was “insulin degludec: 5.4%”.

These data come from US20240100127A1, “TIRZEPATIDE THERAPEUTIC METHODS” (Eli Lilly and Company, priority 2021, published 2024).
